Legend:
[1] = Post-emergent Test III, herbicidal activity in wheat and barley; assay type: in vivo, Lolium multiflorum, Lolium rigidum; conditions: Lolium multiflorum, post-emergence, 504 h, read-out: Visual Growth Reduction (%) 21 Days After Application LOLSS
Outline: (§1)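 GR20, GR50, GR80 and GR90 come from probit analysis of visual injury scores (0 = none, 100 = complete kill) taken 21 d after treatment. Foliar application was by track sprayer delivering 187 L/ha at five rates, from high down to 1/16×, onto greenhouse plants at the 2–3 leaf stage, with solvent-blank controls.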

[2] = system: ALOMY: black-grass (Alopecurus myosuroides); test: as above; assay type: in vivo
Outline: as §1

[3] = system: APESV: bentgrass (Apera spica-venti); test: as above; assay type: in vivo
Outline: as §1

[4] = system: HORSS: barley, including spring and winter (Hordeum vulgare); test: as above; assay type: in vivo
Outline: as §1

[5] = system: KCHSC: kochia (Kochia scoparia); test: as above; assay type: in vivo
Outline: as §1

LAMSS = test: as above; assay type: in vivo
Outline: as §1

[6] = system: LOLSS: ryegrass including, Italian ryegrass (Lolium multiflorum), rigid ryegrass (Lolium rigidum), annual ryegrass (Lolium multiflorum subsp. Gaudini); test: as above; assay type: in vivo; conditions: probit analysis, 21 days after application
Outline: as §1

[7] = system: MATSS: scented mayweed (Matricaria chamomilla), pineappleweed (Matricaria matricarioides); test: as above; assay type: in vivo
Outline: as §1

[8] = system: SETVI: green foxtail (Setaria viridis); test: as above; assay type: in vivo
Outline: as §1

[9] = system: TRZSS: wheat, including spring and winter (Triticum aestivum); test: as above; assay type: in vivo
Outline: as §1

[10] = probit analysis, dose for growth reduction of 50 percent, 21 days after application
[11] = probit analysis, dose for growth reduction of 80 percent, 21 days after application
[12] = probit analysis, dose for growth reduction of 20 percent, 21 days after application, crop

COC(=O)c1nc(-c2ccc(C#N)cc2)c(F)c(N)c1Cl [Compound 142]
pest or weed control at 35 g/ha ([1]; 35 g ai/ha): 0 to 29%
pest or weed control at 70 g/ha ([1]; 70 g ai/ha): 0 to 29%
pest or weed control at 140 g/ha ([1]; 140 g ai/ha): 0 to 29%
pest or weed control at 35 g/ha ([2]; Alopecurus myosuroides, post-emergence, 504 h, 35 g ai/ha, read-out: Visual Growth Reduction (%) 21 Days After Application ALOMY): 0 to 29%
pest or weed control at 70 g/ha ([2]; Alopecurus myosuroides, post-emergence, 504 h, 70 g ai/ha, read-out: Visual Growth Reduction (%) 21 Days After Application ALOMY): 0 to 29%
pest or weed control at 140 g/ha ([2]; Alopecurus myosuroides, post-emergence, 504 h, 140 g ai/ha, read-out: Visual Growth Reduction (%) 21 Days After Application ALOMY): 0 to 29%
GR50 ALOMY [2, 10]: >140 g ai/ha
GR80 ALOMY [2, 11]: >140 g ai/ha
pest or weed control at 35 g/ha ([3]; Apera spica-venti, post-emergence, 504 h, 35 g ai/ha, read-out: Visual Growth Reduction (%) 21 Days After Application APESV): 0 to 29%
pest or weed control at 70 g/ha ([3]; Apera spica-venti, post-emergence, 504 h, 70 g ai/ha, read-out: Visual Growth Reduction (%) 21 Days After Application APESV): 0 to 29%
pest or weed control at 140 g/ha ([3]; Apera spica-venti, post-emergence, 504 h, 140 g ai/ha, read-out: Visual Growth Reduction (%) 21 Days After Application APESV): 0 to 29%
GR50 APESV [3, 10]: >140 g ai/ha
GR80 APESV [3, 11]: >140 g ai/ha
pest or weed control at 35 g/ha ([4]; Hordeum vulgare, post-emergence, 504 h, 35 g ai/ha, read-out: Visual Growth Reduction (%) 21 Days After Application HORSS): 0 to 29%
pest or weed control at 70 g/ha ([4]; Hordeum vulgare, post-emergence, 504 h, 70 g ai/ha, read-out: Visual Growth Reduction (%) 21 Days After Application HORSS): 0 to 29%
pest or weed control at 140 g/ha ([4]; Hordeum vulgare, post-emergence, 504 h, 140 g ai/ha, read-out: Visual Growth Reduction (%) 21 Days After Application HORSS): 0 to 29%
GR20 HORSS [4, 12]: 57 g ai/ha
pest or weed control at 35 g/ha ([5]; Bassia scoparia, post-emergence, 504 h, 35 g ai/ha, read-out: Visual Growth Reduction (%) 21 Days After Application KCHSC): 45 to 59%
pest or weed control at 70 g/ha ([5]; Bassia scoparia, post-emergence, 504 h, 70 g ai/ha, read-out: Visual Growth Reduction (%) 21 Days After Application KCHSC): 60 to 74%
pest or weed control at 140 g/ha ([5]; Bassia scoparia, post-emergence, 504 h, 140 g ai/ha, read-out: Visual Growth Reduction (%) 21 Days After Application KCHSC): 60 to 74%
GR50 KCHSC [5, 10]: 17 g ai/ha
GR80 KCHSC [5, 11]: >140 g ai/ha
pest or weed control at 35 g/ha (LAMSS; post-emergence, 504 h, 35 g ai/ha, read-out: Visual Growth Reduction (%) 21 Days After Application LAMSS): 85 to 94%
pest or weed control at 70 g/ha (LAMSS; post-emergence, 504 h, 70 g ai/ha, read-out: Visual Growth Reduction (%) 21 Days After Application LAMSS): 85 to 94%
pest or weed control at 140 g/ha (LAMSS; post-emergence, 504 h, 140 g ai/ha, read-out: Visual Growth Reduction (%) 21 Days After Application LAMSS): 85 to 94%
GR50 LAMSS (LAMSS; [10]): 0 g ai/ha
GR80 LAMSS (LAMSS; [11]): 5 g ai/ha
GR50 LOLSS ([6]; dose for growth reduction of 50 percent): >140 g ai/ha
GR80 LOLSS ([6]; dose for growth reduction of 80 percent): >140 g ai/ha
pest or weed control at 35 g/ha ([7]; Matricaria chamomilla, post-emergence, 504 h, 35 g ai/ha, read-out: Visual Growth Reduction (%) 21 Days After Application MATSS): 0 to 29%
pest or weed control at 70 g/ha ([7]; Matricaria chamomilla, post-emergence, 504 h, 70 g ai/ha, read-out: Visual Growth Reduction (%) 21 Days After Application MATSS): 0 to 29%
pest or weed control at 140 g/ha ([7]; Matricaria chamomilla, post-emergence, 504 h, 140 g ai/ha, read-out: Visual Growth Reduction (%) 21 Days After Application MATSS): 30 to 44%
GR50 MATSS [7, 10]: >140 g ai/ha
GR80 MATSS [7, 11]: >140 g ai/ha
pest or weed control at 35 g/ha ([8]; Setaria viridis, post-emergence, 504 h, 35 g ai/ha, read-out: Visual Growth Reduction (%) 21 Days After Application SETVI): 0 to 29%
pest or weed control at 70 g/ha ([8]; Setaria viridis, post-emergence, 504 h, 70 g ai/ha, read-out: Visual Growth Reduction (%) 21 Days After Application SETVI): 0 to 29%
pest or weed control at 140 g/ha ([8]; Setaria viridis, post-emergence, 504 h, 140 g ai/ha, read-out: Visual Growth Reduction (%) 21 Days After Application SETVI): 0 to 29%
GR50 SETVI [8, 10]: >140 g ai/ha
GR80 SETVI [8, 11]: >140 g ai/ha
pest or weed control at 35 g/ha ([9]; Triticum aestivum, post-emergence, 504 h, 35 g ai/ha, read-out: Visual Growth Reduction (%) 21 Days After Application TRZSS): 0 to 29%
pest or weed control at 70 g/ha ([9]; Triticum aestivum, post-emergence, 504 h, 70 g ai/ha, read-out: Visual Growth Reduction (%) 21 Days After Application TRZSS): 0 to 29%
pest or weed control at 140 g/ha ([9]; Triticum aestivum, post-emergence, 504 h, 140 g ai/ha, read-out: Visual Growth Reduction (%) 21 Days After Application TRZSS): 45 to 59%
GR20 TRZSS [9, 12]: >140 g ai/ha

From patent publication US9113629B2, “4-amino-6-(4-substituted-phenyl)-picolinates and 6-amino-2-(4-substituted-phenyl)-pyrimidine-4-carboxylates and their use as herbicides” (DOW AGROSCIENCES LLC, priority 2013, dated 2015)
